Source: ChEMBL document CHEMBL1201862, “PubChem BioAssay data set” (2004)
Active and inactive are the calls of the source. Cut-off read from the data, not from the text of the source, for most assays here: actives have a measured EC50 and inactives only a lower limit.

Columns and labels:
Streptococcus = test: GAS UMAA2166 growth inhibition – luminescence, BacTiterGlo, counter-screen for streptokinase expression inhibitor project, dose response (AID 1915); type: functional, organism-based;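 note: potency for reduction of bacterial viability or growth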
[1] = test system: Streptococcus sp. 'group A'; test: Streptococcus pyogenes SK(-)GAS viability under kanamycin – luminescence, BacTiterGlo, confirmation, counter-screen for streptokinase expression inhibitor project, dose response (AID 1900); type: functional, organism-based
Beta-galactosidase = Beta-galactosidase (Escherichia coli, UniProt Q8VNN2); test: PubChem AID 485352; type: functional
Beta-galactosidase, sequence (Q8VNN2 whole entry): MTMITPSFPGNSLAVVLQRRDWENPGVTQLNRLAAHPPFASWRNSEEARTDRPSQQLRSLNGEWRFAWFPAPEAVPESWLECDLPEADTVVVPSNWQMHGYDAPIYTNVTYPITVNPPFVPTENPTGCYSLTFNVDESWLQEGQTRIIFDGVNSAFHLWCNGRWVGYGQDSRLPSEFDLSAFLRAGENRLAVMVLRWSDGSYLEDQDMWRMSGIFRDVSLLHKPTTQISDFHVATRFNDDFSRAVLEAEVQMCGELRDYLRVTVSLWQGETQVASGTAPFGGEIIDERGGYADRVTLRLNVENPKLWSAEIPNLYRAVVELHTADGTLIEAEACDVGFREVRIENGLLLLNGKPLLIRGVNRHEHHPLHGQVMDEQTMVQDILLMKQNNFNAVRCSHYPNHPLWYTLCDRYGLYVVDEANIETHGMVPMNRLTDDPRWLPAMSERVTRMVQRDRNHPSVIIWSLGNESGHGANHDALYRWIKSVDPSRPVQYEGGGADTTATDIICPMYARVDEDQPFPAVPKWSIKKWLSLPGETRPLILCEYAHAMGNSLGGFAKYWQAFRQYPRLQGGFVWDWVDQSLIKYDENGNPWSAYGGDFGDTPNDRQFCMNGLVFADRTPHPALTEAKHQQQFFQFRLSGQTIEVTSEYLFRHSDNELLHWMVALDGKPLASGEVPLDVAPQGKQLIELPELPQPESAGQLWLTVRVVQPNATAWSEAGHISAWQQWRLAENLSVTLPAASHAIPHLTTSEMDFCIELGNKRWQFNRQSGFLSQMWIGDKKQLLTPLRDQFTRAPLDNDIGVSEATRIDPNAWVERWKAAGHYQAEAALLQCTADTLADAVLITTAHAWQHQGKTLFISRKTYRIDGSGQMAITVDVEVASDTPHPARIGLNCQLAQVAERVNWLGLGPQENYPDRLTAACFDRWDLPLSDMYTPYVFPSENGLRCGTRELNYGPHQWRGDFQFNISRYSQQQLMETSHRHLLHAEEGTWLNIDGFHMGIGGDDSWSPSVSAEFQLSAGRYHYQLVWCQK

[2] = target: T1, Type-1 angiotensin II receptor (Homo sapiens, UniProt P30556); test: antagonism of angiotensin II type 1 receptor – cell-based, uHTS hits, selectivity assay for APJ receptor antagonist project, dose response (AID 463214); type: functional;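 note: antagonist potency against angiotensin II stimulated AT1 response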
T1 sequence (P30556 whole entry): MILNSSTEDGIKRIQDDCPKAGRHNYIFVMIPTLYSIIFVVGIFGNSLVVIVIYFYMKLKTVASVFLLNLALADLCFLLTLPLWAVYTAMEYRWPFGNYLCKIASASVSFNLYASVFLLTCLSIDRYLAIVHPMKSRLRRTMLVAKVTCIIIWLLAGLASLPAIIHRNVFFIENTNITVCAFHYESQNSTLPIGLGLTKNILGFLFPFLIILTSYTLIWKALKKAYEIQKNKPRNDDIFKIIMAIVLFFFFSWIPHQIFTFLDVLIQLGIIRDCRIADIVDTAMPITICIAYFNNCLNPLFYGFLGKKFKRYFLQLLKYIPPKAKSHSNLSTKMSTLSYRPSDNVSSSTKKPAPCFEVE

[3] = target: Heat shock protein HSP 90-alpha (Homo sapiens, UniProt P07900); type: functional, organism-based
[4] = DRD fibroblast viability loss – cell-based, non-viral oncogenic, luminescence, dose response (AID 1934); type: functional; details: Homo sapiens
BJ [5] = test: BJ-TERT-LT-ST fibroblast viability loss – cell-based, RAS-independent, luminescence, dose response (AID 1935); type: functional; details: Homo sapiens;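 note: BJ fibroblasts immortalized with TERT plus LT and ST oncogenes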
BJ [6] = test: cells; type: functional, cell-based; details: Homo sapiens
BJ [7] = test: BJ-TERT fibroblast viability loss – cell-based, RAS-independent, luminescence, dose response (AID 1933); type: functional; details: Homo sapiens
Fatty acid synthase [8] = target: T2, Fatty acid synthase (Homo sapiens, UniProt P49327); test: inhibition of human FAS-TE enzyme activity – biochemical, endpoint fluorescence intensity, uHTS hits, dose response (AID 624327); type: functional;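 note: fluorescence from hydrolysis of an O-methyl fluorescein acyl ester substrate by the enzyme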
T2 sequence (P49327 whole entry, the tested form may be a part): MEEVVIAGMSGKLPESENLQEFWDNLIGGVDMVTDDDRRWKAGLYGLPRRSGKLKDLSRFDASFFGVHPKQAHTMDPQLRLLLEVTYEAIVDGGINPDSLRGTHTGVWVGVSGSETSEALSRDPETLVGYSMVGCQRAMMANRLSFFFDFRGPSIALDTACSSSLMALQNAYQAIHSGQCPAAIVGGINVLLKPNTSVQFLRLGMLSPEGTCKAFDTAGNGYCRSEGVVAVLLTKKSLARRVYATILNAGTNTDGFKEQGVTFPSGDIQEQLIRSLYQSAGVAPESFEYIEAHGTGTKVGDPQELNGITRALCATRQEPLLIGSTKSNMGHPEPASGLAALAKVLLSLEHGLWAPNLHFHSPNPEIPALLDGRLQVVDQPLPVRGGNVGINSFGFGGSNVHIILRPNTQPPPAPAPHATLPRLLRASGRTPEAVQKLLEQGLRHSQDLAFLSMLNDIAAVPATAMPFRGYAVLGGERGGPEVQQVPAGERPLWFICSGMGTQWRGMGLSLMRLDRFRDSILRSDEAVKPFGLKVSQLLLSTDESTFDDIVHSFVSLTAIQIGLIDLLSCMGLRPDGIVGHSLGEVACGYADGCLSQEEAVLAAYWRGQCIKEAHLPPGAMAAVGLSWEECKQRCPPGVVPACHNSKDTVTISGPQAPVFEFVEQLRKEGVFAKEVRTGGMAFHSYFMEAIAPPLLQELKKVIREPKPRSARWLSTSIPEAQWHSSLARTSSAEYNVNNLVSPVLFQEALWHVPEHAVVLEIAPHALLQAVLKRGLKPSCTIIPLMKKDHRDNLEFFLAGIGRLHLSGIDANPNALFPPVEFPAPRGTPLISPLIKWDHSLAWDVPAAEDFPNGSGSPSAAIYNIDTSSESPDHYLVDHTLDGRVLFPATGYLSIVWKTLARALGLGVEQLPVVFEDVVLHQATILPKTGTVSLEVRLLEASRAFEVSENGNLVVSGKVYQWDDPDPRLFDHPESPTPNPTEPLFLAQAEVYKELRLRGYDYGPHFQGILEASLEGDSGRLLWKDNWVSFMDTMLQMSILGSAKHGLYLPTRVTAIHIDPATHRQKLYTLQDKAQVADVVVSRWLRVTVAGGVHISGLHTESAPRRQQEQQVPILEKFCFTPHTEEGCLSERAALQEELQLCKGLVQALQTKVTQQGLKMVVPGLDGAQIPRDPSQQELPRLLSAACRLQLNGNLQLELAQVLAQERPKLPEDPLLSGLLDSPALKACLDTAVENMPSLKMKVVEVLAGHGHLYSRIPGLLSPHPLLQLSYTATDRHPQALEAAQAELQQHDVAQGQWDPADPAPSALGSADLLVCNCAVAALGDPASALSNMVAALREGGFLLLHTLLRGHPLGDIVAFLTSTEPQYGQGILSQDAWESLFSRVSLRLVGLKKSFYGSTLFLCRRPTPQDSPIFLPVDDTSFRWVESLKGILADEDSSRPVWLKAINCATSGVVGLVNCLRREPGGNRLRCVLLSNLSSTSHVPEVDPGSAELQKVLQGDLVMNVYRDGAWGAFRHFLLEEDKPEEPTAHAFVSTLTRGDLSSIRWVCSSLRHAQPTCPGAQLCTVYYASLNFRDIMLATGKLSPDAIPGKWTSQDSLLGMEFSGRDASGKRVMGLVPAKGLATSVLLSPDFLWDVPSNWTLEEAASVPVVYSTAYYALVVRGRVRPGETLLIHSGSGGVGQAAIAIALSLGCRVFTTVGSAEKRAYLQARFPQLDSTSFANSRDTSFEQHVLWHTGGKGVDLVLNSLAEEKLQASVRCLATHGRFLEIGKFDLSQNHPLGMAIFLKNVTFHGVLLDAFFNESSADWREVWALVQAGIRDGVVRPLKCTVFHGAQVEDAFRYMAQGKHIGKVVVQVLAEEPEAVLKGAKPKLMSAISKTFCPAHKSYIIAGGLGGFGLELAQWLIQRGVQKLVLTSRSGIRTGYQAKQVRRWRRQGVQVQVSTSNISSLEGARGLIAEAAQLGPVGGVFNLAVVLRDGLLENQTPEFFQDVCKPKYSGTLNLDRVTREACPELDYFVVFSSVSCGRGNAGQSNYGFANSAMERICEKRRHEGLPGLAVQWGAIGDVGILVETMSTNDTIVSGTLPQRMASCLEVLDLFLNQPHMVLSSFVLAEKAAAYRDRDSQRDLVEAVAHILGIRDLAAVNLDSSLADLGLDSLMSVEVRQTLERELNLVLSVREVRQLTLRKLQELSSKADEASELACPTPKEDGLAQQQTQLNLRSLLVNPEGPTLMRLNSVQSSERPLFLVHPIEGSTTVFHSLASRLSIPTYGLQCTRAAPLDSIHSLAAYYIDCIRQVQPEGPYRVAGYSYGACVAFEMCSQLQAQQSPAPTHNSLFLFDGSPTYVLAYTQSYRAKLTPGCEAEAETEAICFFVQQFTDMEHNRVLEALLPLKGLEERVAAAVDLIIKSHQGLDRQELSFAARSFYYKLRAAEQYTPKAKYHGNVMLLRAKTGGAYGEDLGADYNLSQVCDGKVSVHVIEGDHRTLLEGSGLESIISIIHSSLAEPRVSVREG

[9] = target: T3, Carboxy-terminal domain RNA polymerase II polypeptide A small phosphatase 1 (Homo sapiens, UniProt Q9GZU7); test: CTDSP1 inhibitors, concentration-response, biochemical, absorbance readout, ultra-high-throughput screen actives (AID 540297); type: functional
T3 sequence (Q9GZU7 whole entry): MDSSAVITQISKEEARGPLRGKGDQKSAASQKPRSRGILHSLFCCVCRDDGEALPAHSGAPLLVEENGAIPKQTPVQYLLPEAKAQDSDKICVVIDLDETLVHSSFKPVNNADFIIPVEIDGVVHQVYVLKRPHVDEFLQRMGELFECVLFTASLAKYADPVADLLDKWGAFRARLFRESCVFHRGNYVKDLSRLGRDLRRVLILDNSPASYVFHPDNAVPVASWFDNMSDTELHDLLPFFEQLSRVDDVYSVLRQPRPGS

Fatty acid synthase [10] = target: T2, Fatty acid synthase; test: inhibition of human FAS-TE enzyme activity – biochemical, kinetic fluorescence intensity, dose response (AID 624326); type: functional;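 note: rate of fluorescence rise from hydrolysis of a fluorogenic O-methyl fluorescein ester substrate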

| Compound | EC50 (Streptococcus) | EC50 [1] | EC50 (Beta-galactosidase) | IC50 [2] | AC50 [3] | EC50 [4] | EC50 (BJ [5]) | EC50 (BJ [6]) | EC50 (BJ [7]) | IC50 (Fatty acid synthase [8]) | IC50 [9] | IC50 (Fatty acid synthase [10]) |
| --- | --- | --- | --- | --- | --- | --- | --- | --- | --- | --- | --- | --- |
| Oc1cccc2ccc(/C=C/c3ccccc3Cl)nc12 | 1.3 µM (active) | 0.345 µM (active) | > 40 µM (inactive) | 32.3 µM (not active) | 11.6 µM (active) | 32.6 µM (active) | > 150 µM (inconclusive) | 28.5 µM (active) | 12.9 µM (active) | – | – | – |
| O=C(CCCC(=O)Nc1cccc(Br)c1)N/N=C/c1cc([N+](=O)[O-])ccc1O | – | – | > 40 µM (inactive) | > 40 µM (not active) | – | – | – | – | – | 10 µM (active) | 6.26 µM (active) | 7.42 µM (active) |
